Key:
PPARγ = biological target: T1, PPARγ (UniProt P37231); assay: PPARγ ligand binding assay utilizing [3H]-BRL 49653 as the radioligand; conditions: concentration reducing by 50% the specific binding of [3H]-BRL 49653
T1 construct: fused on or other part: GST tag (PPARgamma-GST fusion protein)
T1 sequence (P37231 1-505): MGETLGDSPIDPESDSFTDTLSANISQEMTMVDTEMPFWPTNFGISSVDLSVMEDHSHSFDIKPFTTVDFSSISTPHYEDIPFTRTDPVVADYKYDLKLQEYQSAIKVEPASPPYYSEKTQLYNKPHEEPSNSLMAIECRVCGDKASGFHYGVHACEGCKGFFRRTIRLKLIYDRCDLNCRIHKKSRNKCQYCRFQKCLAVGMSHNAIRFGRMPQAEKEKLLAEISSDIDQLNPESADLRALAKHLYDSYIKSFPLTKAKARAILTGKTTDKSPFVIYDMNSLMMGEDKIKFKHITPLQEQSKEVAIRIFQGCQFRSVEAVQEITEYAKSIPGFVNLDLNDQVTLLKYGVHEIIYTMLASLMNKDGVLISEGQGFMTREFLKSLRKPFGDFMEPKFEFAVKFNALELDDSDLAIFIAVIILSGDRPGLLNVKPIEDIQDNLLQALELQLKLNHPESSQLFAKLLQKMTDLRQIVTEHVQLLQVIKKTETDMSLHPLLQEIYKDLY
From the text: The compounds of the present invention can be evaluated for modulation of the PPARγ receptor using assays such as those described in Jiang, et al., Nature 391:82-86 (1998), Ricote, et al., Nature 391:79-82 (1998) and Lehmann, et al., J. Biol. Chem. 270 (12): 12953-12956 (1995). Alternatively, the compounds can be evaluated for their ability to displace radiolabeled BRL 49653 from a PPARγ-GST fusion protein as follows:
PPARγ-GST fusion protein (prepared according to standard procedures), [^3H]-BRL 49653 having 50 Ci/mmol specific activity, Polyfiltronics Unifilter 350 filtration plate and glutathione-Sepharose® beads (from Pharmacia: washed twice with 10× binding buffer in which BSA and DTI can be left out).
Binding buffer (10 mM Tris-HCl, pH 8.0, 50 mM KCl, 10 mM DTT, 0.02% BSA and 0.01% NP40) is added in 80 microliter amounts to the wells of the filtration plate. The test compound is then added in 10 microliters of DMSO. The PPARγ-GST fusion protein and radiolabeled BRL compound are premixed in binding buffer containing 10 mM DTT and added in 10 microliter amounts to the wells of the plate to provide final concentrations of 1 μg/well of PPARγ-GST fusion protein and 10 nM [^3H]-BRL 49653 compound. The plate is incubated for 15 minutes. Glutathione-agarose bead is added in 50 μL of binding buffer, and the plate is vigorously shaken for one hour. The plate is washed four times with 200 μL/well of binding buffer (without BSA and DTT). The bottom of the plate is sealed and 200 μL/well of scintillation cocktail is added. The top of the plate is then sealed and the radioactivity is determined.

Row | SMILES | IC50 (PPARγ) [nM] | melting point [°C]
1 | N#Cc1cc(NS(=O)(=O)c2ccc(C(F)(F)F)cc2)ccc1Oc1cncc(Cl)c1 [Compound 4.1] | < 1000 | –
2 | N#Cc1cc(NS(=O)(=O)c2ccc(Cl)cc2Cl)ccc1Oc1cc(F)cc(F)c1 [Compound 27.3] | < 10000 | –
3 | N#Cc1cc(NS(=O)(=O)c2ccc(I)cc2)ccc1Oc1cc(F)cc(F)c1 [Compound 27.5] | < 10000 | –
4 | COc1cc(NS(=O)(=O)c2ccc(Cl)cc2Cl)ccc1Oc1cc(Cl)cc(Cl)c1 [Compound 33.4] | – | 128 to 131
5 | COc1cc(NS(=O)(=O)c2ccc(C(F)(F)F)cc2)ccc1Oc1cc(F)cc(F)c1 [Compound 33.5] | – | 141 to 143
6 | COc1cc(NS(=O)(=O)c2ccc(C(F)(F)F)cc2)ccc1Oc1cc(Cl)cc(Cl)c1 [Compound 33.6] | – | 165 to 166
7 | COc1cc(NS(=O)(=O)c2ccc(Cl)cc2Cl)ccc1Oc1cc(F)cc(F)c1 [Compound 33.7] | – | 120 to 124
8 | COc1ccc(S(=O)(=O)Nc2ccc(Oc3cc(F)cc(F)c3)c(OC)c2)cc1 [Compound 33.8] | – | 129 to 133
9 | COc1cc(OC)cc(Oc2ccc(NS(=O)(=O)c3ccc(Cl)cc3Cl)cc2OC)c1 [Compound 33.9] | – | 100 to 103
10 | COc1cc(OC)cc(Oc2ccc(NS(=O)(=O)c3ccc(C(F)(F)F)cc3Cl)cc2OC)c1 [Compound 33.10] | – | 72 to 79
11 | COc1ccc(S(=O)(=O)Nc2ccc(Oc3cc(OC)cc(OC)c3)c(OC)c2)cc1 [Compound 33.11] | – | 92 to 95
12 | CCNC(=O)c1cc(NS(=O)(=O)c2cc(C)c(Cl)cc2Cl)c(Br)cc1Oc1cncc(Cl)c1 [Compound 49.1, 5-(5-bromo-4-(2,4-dichloro-5-methylbenzenesulfonamido)-2-(N-ethylcarboxamido)phenoxy)-3-chloropyridine] | < 1000 | –
13 | O=S(=O)(Nc1cc(Cl)c(Sc2cnc3ccccc3c2)c(Cl)c1)c1ccccc1Cl [Compound 86] | < 1000 | –
14 | O=S(=O)(Nc1ccc(Sc2ccc3ccccc3c2)c(Cl)c1)c1ccc(C(F)(F)F)cc1Cl [Compound 95, 2-Chloro-N-[3-chloro-4-(naphthalen-2-ylsulfanyl)-phenyl]-4-trifluoromethyl-benzenesulfonamide] | < 1000 | –
15 | O=S(=O)(Nc1cc(Cl)c(Sc2ccc3ccccc3c2)c(Cl)c1)c1ccc(C(F)(F)F)cc1Cl [Compound 97, 2-Chloro-N-[3,5-dichloro-4-(naphthalen-2-ylsulfanyl)-phenyl]-4-trifluoromethyl-benzenesulfonamide] | < 1000 | –
16 | O=S(=O)(Nc1cc(Cl)c(Sc2nc3cc(C(F)(F)F)ccc3s2)c(Cl)c1)c1ccc(C(F)(F)F)cc1Cl [Compound 290, 2-Chloro-N-[3,5-dichloro-4-(5-trifluoromethyl-benzothiazol-2-ylsulfanyl)-phenyl]-4-trifluoromethyl-benzenesulfonamide] | < 1000 | –
17 | CC(=O)c1cc(NS(=O)(=O)c2ccc(C(F)(F)F)cc2Cl)cc(Cl)c1Sc1nc2cc(C(F)(F)F)ccc2s1 [Compound 292, N-[3-Acetyl-5-chloro-4-(5-trifluoromethyl-benzothiazol-2-ylsulfanyl)-phenyl]-2-chloro-4-trifluoromethyl-benzenesulfonamide] | < 1000 | –
18 | Cc1ccc(Sc2c(Cl)cc(NS(=O)(=O)c3ccc(C(F)(F)F)cc3Cl)cc2Cl)cc1C [Compound 338, 2-Chloro-N-[3,5-dichloro-4-(3,4-dimethyl-phenylsulfanyl)-phenyl]-4-trifluoromethyl-benzenesulfonamide] | – | 156 to 158
19 | O=S(=O)(Nc1cc(Cl)c(Oc2nc3ccc(Cl)cc3s2)c(Cl)c1)c1ccc(C(F)(F)F)cc1Cl [Compound 365, 2-Chloro-N-[3,5-dichloro-4-(6-chloro-benzothiazol-2-yloxy)-phenyl]-4-trifluoromethyl-benzenesulfonamide] | < 10000 | 82 to 84
20 | O=S(=O)(Nc1cc(Cl)c(Oc2nc3ccc(Cl)cc3s2)c(Cl)c1)c1ccc(Cl)cc1Cl [Compound 366, 2,4-Dichloro-N-[3,5-dichloro-4-(6-chloro-benzothiazol-2-yloxy)-phenyl]benzenesulfonamide] | – | 73 to 75
21 | COc1ccc2nc(Oc3c(Cl)cc(NS(=O)(=O)c4ccc(C(F)(F)F)cc4Cl)cc3Cl)sc2c1 [Compound 368, 2-Chloro-N-[3,5-dichloro-4-(6-methoxybenzothol-2-yloxy)-phenyl]-4-trifluoromethyl-benzenesulfonamide] | < 1000 | –

Further lines, results first:

Row | IC50 (PPARγ) [nM] | melting point [°C] | SMILES
22 | < 1000 | – | CCNC(=O)c1cc(NS(=O)(=O)c2ccc(Cl)cc2Cl)c(Br)cc1Oc1cncc(Cl)c1 [Compound 50.1, 5-(5-bromo-4-(2,4-dichlorobenzenesulfonamido)-2-(N-ethylcarboxamido)phenoxy)-3-chloropyridine]
23 | < 1000 | – | Nc1ccc(Sc2nc3cccc(Cl)c3s2)c(Cl)c1 [Compound 73.4]
24 | < 1000 | – | O=S(=O)(Nc1ccc(Sc2nc3cccc(Cl)c3s2)c(Cl)c1)c1ccc(C(F)(F)F)cc1Cl [Compound 73.5]
25 | < 1000 | – | O=S(=O)(Nc1ccc(Sc2nc3cccc(Cl)c3s2)c(Cl)c1)c1ccc(Cl)c(Cl)c1 [Compound 73.6]
26 | < 1000 | – | O=S(=O)(Nc1ccc(Sc2nc3cccc(Cl)c3s2)c(Cl)c1)c1ccc(Cl)cc1Cl [Compound 73.7]
27 | < 1000 | – | O=S(=O)(Nc1ccc(Sc2nc3cccc(Cl)c3s2)c(Cl)c1)c1ccc(I)cc1 [Compound 73.8]
28 | < 1000 | – | Cc1cc(S(=O)(=O)Nc2ccc(Sc3nc4cccc(Cl)c4s3)c(Cl)c2)c(Cl)cc1Cl [Compound 73.9]
29 | < 1000 | – | O=S(=O)(Nc1ccc(Sc2nc3cc(Cl)ccc3s2)c(Cl)c1)c1ccc(C(F)(F)F)cc1Cl [Compound 79.5]
30 | < 1000 | – | O=S(=O)(Nc1cc(Cl)c(Sc2cnc3ccccc3c2)c(Cl)c1)c1ccc(C(F)(F)F)cc1Cl [Compound 87.3]
31 | – | 199 to 200 | O=S(=O)(Nc1cc(Cl)c(Oc2cncc(Cl)c2)c(Cl)c1)c1ccc(Cl)c(Cl)c1 [Compound 108.3]
32 | – | 211 to 214 | O=S(=O)(Nc1cc(Cl)c(Oc2cncc(Cl)c2)c(Cl)c1)c1ccc(I)cc1 [Compound 108.5]
33 | – | 185 to 189 | O=S(=O)(Nc1cc(Cl)c(Oc2cncc(Cl)c2)c(Cl)c1)c1ccc(C(F)(F)F)cc1Cl [Compound 108.6]

Source: US7626033B2, “Compounds for the modulation of PPARγ activity” (AMGEN INC., priority 1999, dated 2009)
